The text below walks through data of US6716574B2, “Osp-C derived peptide fragments” (Dako A/S, priority 1996, dated 2004).

In experiment [1] the test system is IgM in serum from a patient with established neuroborreliosis. In words: Western blot with the decapeptide as serodiagnostic test antigen. The class given is binding, human. The settings on record: 10 ug peptide on nitrocellulose, NB serum 1:100, preliminary experiments. Here is the method:
After three further washes in TRIS buffered saline with Tween, antibody reactive peptide was detected with alkaline phosphatase-coupled rabbit anti-human immune globulin M (DAKO, Denmark; cat. no. 337). The conjugate was diluted 1:1000 in TRIS buffered saline with 1% BSA and the NC membrane was incubated with colour substrate (BCIP and NBT; 1:500) for 10 minutes.
(A western blot detects proteins with antibodies after separation by electrophoresis.)

Experiment [2] has as its system IgG antibodies in Lyme borreliosis sera. In words: IgG antibodies to the C-terminal decapeptide in Lyme borreliosis sera. The class given is binding, human.

Take “NH2-Pro-Val-Val-Ala-Glu-Ser-Pro-Lys-Lys-Pro-COOH (H-PVVAESPKKP-OH; listed as Borrelia garinii) [SEQ ID NO: 1, C-terminal decapeptide of B. burgdorferi sensu lato OspC]”: the “usability as serodiagnostic test antigen in western blot” value in experiment [1] is given as “can be used as a serodiagnostic test antigen”. In addition, in experiment [2], the “Lyme borreliosis sera comprising IgG antibodies to the peptide” value is reported as “only few”.
